Reference: paper PMC4051119, “Bacterial actin MreB forms antiparallel double filaments” (eLife, 2014)
Values joined by “and” are separate entries in the source; they are usually repeats but may differ in a detail not shown here. Equal entries are not always repeated. Where two headings read alike, the source gives them in different places.

Tests used:
cell morphology = tested on: cell morphology; parameters: method as in earlier work; conditions: ref Iwai et al., 2002; Gitai et al., 2005; Bean et al., 2009; Takacs et al., 2010; cited from earlier work
ΔCcMreBdh = biological target: T1, ΔCcMreBdh (Caulobacter vibrioides, UniProt A0A0H3C7V4, F102S/V103G); assay: Isothermal titration calorimetry of nucleotides and MP265 binding to MreB; parameters: species or system Caulobacter crescentus; conditions: ITC
T1 construct: added initiator Met (M before I9) (N); made in house; host or cells: E. coli C41(DE3) (printed for the sister construct ΔCcMreBh)
T1 sequence (A0A0H3C7V4 9-347 F102S/V103G): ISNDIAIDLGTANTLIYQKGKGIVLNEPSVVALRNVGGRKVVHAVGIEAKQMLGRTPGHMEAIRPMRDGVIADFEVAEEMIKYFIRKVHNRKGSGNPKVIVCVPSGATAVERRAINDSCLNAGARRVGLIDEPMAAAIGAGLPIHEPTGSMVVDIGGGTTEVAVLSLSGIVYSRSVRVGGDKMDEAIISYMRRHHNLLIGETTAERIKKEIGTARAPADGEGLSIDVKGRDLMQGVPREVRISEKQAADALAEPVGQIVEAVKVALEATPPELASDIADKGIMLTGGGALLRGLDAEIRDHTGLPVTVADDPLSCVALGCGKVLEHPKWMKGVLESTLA
Method: […] Samples were stored by the instrument in 96-well microtitre plates at 5°C prior to loading and performing the ITC titrations. […] Heat from the pre-injection was not used during fitting. Data were analysed manually in the Origin software package provided by the manufacturer and fit to a single set of binding sites model. […] The small endothermic heats of each injection in these experiments were fitted to a simple linear function that was subsequently subtracted from the equivalent integrated heats of the experiment when protein was present.

[1] = 25°C, ligand titrated into ΔCcMreBdh alone
[2] = 25°C, ligand titrated into ΔCcMreBdh alone, read-out: Kd

Compound | effect on cell morphology (cell morphology) | ΔH (ΔCcMreBdh; [1]) [kcal/mol] | Kd (ΔCcMreBdh; [2]) | further results
N=C(N)SCc1ccc(Cl)c(Cl)c1 [A22, S-(3,4-dichlorobenzyl) isothiourea] | perturb cell morphology reminiscent of an MreB knock-out | – | – | –
Nc1ncnc2c1ncn2[C@@H]1O[C@H](COP(=O)(O)OP(=O)(O)O)[C@@H](O)[C@H]1O [ADP] | – | -5.3 | ~4 µM and 4 µM | –
Nc1ncnc2c1ncn2[C@@H]1O[C@H](COP(=O)(O)OP(=O)(O)NP(=O)(O)O)[C@@H](O)[C@H]1O [AMPPNP] | – | -4.4 | ~65 µM and 65 µM | –
Nc1ncnc2c1ncn2[C@@H]1O[C@H](COP(=O)(O)OP(=O)(O)OP(=O)(O)O)[C@@H](O)[C@H]1O [ATP] | – | -6.0 | ~1 µM and 1 µM | –
Nc1ncnc2c1ncn2[C@@H]1O[C@H](CO[P@](=O)(O)O[P@](=O)(O)O[P@@](=O)(O)S)[C@@H](O)[C@H]1O [ATPγS] | – | -7.7 | – | Kd (ΔCcMreBdh; Kd, 25°C, ligand titrated into ΔCcMreBdh alone): ~4.6 µM and 4.5 µM
N=C(N)SCc1ccc(Cl)cc1 [MP265] | perturb cell morphology reminiscent of an MreB knock-out | – | ~27 µM and 26 µM and 27 µM | Kd (ΔCcMreBdh; 15°C, in the presence of 0.5 mM ADP, data not shown, read-out: affinity (Kd)): 0.6 µM; Kd (ΔCcMreBdh; 15°C, in the presence of 0.5 mM AMPPNP, data not shown, read-out: affinity (Kd)): 0.7 µM; Kd (ΔCcMreBdh; 15°C, ΔCcMreBdh alone, data not shown, read-out: affinity (Kd)): 19 µM; ΔH (ΔCcMreBdh; 25°C, in the presence of 0.5 mM ADP): -12 kcal/mol; Kd (ΔCcMreBdh; 25°C, in the presence of 0.5 mM ADP, read-out: Kd): 1.3 µM; ΔH (ΔCcMreBdh; 25°C, in the presence of 0.5 mM AMPPNP): -11 kcal/mol; Kd (ΔCcMreBdh; 25°C, in the presence of 0.5 mM AMPPNP, read-out: Kd): 1.7 µM; increase of binding affinity in the presence of di- and trinucleotide phosphates (ΔCcMreBdh; with nucleotide versus ΔCcMreBdh alone): 20–30 fold
